Test results taken from patent US20250215039A1, “NUCLEOSIDES FOR TREATING CANCER” (PRIMEFOUR THERAPEUTICS, INC., priority 2022, published 2025).
Where two headings read alike, the source gives them in different places.

Key:
cancer cell lines = assay: Cancer cell proliferation activity (CellTiterGlo, 72 h); type: cell-based; settings: for IC50: 72 h, read-out: IC50
How it was run: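 Readout is CellTiterGlo luminescence after 72 h compound exposure (0.1% DMSO final), started one day post-seeding, at 37 °C.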

[1] = target: human cytidine deaminase (CDA) (Homo sapiens, UniProt P32320); assay: Metabolism by human cytidine deaminase (CDA), substrate absorbance at 290 nm; settings: 12 nM CDA, 50 and 200 uM substrate, 37° C., pH 7.5; figure legends FIG. 4-9
Chain of human cytidine deaminase (CDA) (P32320 whole entry): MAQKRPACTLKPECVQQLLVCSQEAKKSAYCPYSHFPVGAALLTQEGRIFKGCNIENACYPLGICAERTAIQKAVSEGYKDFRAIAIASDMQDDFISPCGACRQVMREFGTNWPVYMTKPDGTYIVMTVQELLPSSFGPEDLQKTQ

- IC50 (cancer cell lines; 5637 cell line (bladder)): 30 nM
- IC50 (cancer cell lines; CLS439 cell line (bladder)): 17600 nM
- IC50 (cancer cell lines; HS729 cell line (muscle)): 1410 nM
- IC50 (cancer cell lines; JAR cell line (placenta)): > 50000 nM
- IC50 (cancer cell lines; U20S cell line, bone): > 50000 nM
- IC50 (cancer cell lines; Homo sapiens, 22Rv1, 72 h, 22RV1 cell line (prostate)): 400 nM
- IC50 (cancer cell lines; Homo sapiens, 786-0, 72 h, 786O cell line (kidney)): > 50000 nM
- IC50 (cancer cell lines; Homo sapiens, A204, 72 h, A204 cell line (muscle)): 140 nM
- IC50 (cancer cell lines; Homo sapiens, A549, 72 h, A549 cell line, lung): 240 nM
- IC50 (cancer cell lines; Homo sapiens, A673, 72 h, A673 cell line (bone)): 510 nM
- IC50 (cancer cell lines; Homo sapiens, A2780, 72 h, A2780 cell line (ovary)): 680 nM
- IC50 (cancer cell lines; Homo sapiens, A-375, 72 h, A375 cell line (skin)): 730 nM
- IC50 (cancer cell lines; Homo sapiens, A-431, 72 h, A431 cell line (skin)): 40 nM
- IC50 (cancer cell lines; Homo sapiens, ACHN, ACHN cell line (kidney)): 50 nM
- IC50 (cancer cell lines; Homo sapiens, ASPC1, 72 h, ASPC1 cell line (pancreas)): 10 nM
- IC50 (cancer cell lines; Homo sapiens, BT-20, 72 h, BT20 cell line (breast)): > 50000 nM
- IC50 (cancer cell lines; Homo sapiens, BXPC-3, 72 h, BXPC3 cell line (pancreas)): 10 nM
- IC50 (cancer cell lines; Homo sapiens, C-33-A, C33A cell line, endometrial): 130 nM
- IC50 (cancer cell lines; Homo sapiens, CAKI-1, 72 h, CAKI1 cell line (kidney)): 400 nM
- IC50 (cancer cell lines; Homo sapiens, COLO 205, 72 h, COLO205 cell line (colon)): 60 nM
- IC50 (cancer cell lines; Homo sapiens, COLO-678, 72 h, COLO678 cell line (colon)): > 50000 nM
- IC50 (cancer cell lines; Homo sapiens, Ca-Ski, CASKI cell line, endometrial): 6170 nM
- IC50 (cancer cell lines; Homo sapiens, Caco-2, 72 h, CACO2 cell line (colon)): > 50000 nM
- IC50 (cancer cell lines; Homo sapiens, Calu-6, 72 h, CALU6 cell line (lung)): 250 nM
- IC50 (cancer cell lines; Homo sapiens, DLD-1, 72 h, DLD1 cell line (colon)): 3660 nM
- IC50 (cancer cell lines; Homo sapiens, DU-145, 72 h, DU145 cell line (prostate)): 1340 nM
- IC50 (cancer cell lines; Homo sapiens, EFO-21, 72 h, EFO21 cell line (ovary)): 3620 nM
- IC50 (cancer cell lines; Homo sapiens, EJ-28, 72 h, EJ28 cell line (bladder)): 190 nM
- IC50 (cancer cell lines; Homo sapiens, Granta-519, 72 h, GRANTA-519 cell line (hematological)): 30 nM
- IC50 (cancer cell lines; Homo sapiens, HCT-15, 72 h, HCT15 cell line (colon)): 1580 nM
- IC50 (cancer cell lines; Homo sapiens, HCT-116, 72 h, HCT116 cell line (colon)): 1180 nM
- IC50 (cancer cell lines; Homo sapiens, HEK293, 72 h, HEK293 cell line (kidney)): > 50000 nM
- IC50 (cancer cell lines; Homo sapiens, HL-60, 72 h, HL-60 cell line (hematological)): 810 nM
- IC50 (cancer cell lines; Homo sapiens, HT-29, 72 h, HT29 cell line (colon)): 160 nM
- IC50 (cancer cell lines; Homo sapiens, HT-1080, 72 h, HT1080 cell line (connective tissue)): 190 nM
- IC50 (cancer cell lines; Homo sapiens, HeLa, HELA cell line, endometrial): > 50000 nM
- IC50 (cancer cell lines; Homo sapiens, HepG2, 72 h, HEPG2 cell line (liver)): 540 nM
- IC50 (cancer cell lines; Homo sapiens, Hs-578T, HS578T cell line, breast): > 50000 nM
- IC50 (cancer cell lines; Homo sapiens, IGROV-1, 72 h, IGROV1 cell line (ovary)): 1650 nM
- IC50 (cancer cell lines; Homo sapiens, IMR-90, 72 h, IMR90 cell line, lung): > 50000 nM
- IC50 (cancer cell lines; Homo sapiens, J82, 72 h, J82 cell line (bladder)): 1080 nM
- IC50 (cancer cell lines; Homo sapiens, JEG-3, 72 h, JEG3 cell line (placenta)): 100 nM
- IC50 (cancer cell lines; Homo sapiens, JIMT-1, 72 h, JIMT1 cell line (breast)): 890 nM
- IC50 (cancer cell lines; Homo sapiens, K562, 72 h, K-562 cell line (hematological)): > 50000 nM
- IC50 (cancer cell lines; Homo sapiens, Kasumi 1, 72 h, KASUMI-1 cell line (hematological)): 400 nM
- IC50 (cancer cell lines; Homo sapiens, L-363, 72 h, L-363 cell line (hematological)): > 50000 nM
- IC50 (cancer cell lines; Homo sapiens, LoVo, LOVO cell line (colon)): 30 nM
- IC50 (cancer cell lines; Homo sapiens, MCF7, 72 h, MCF7 cell line (breast)): 1760 nM
- IC50 (cancer cell lines; Homo sapiens, MDA-MB-231, 72 h, MDAMB231 cell line (breast)): 370 nM
- IC50 (cancer cell lines; Homo sapiens, MDA-MB-435, 72 h, MDAMB435 cell line (skin)): 2520 nM
- IC50 (cancer cell lines; Homo sapiens, MDA-MB-436, 72 h, MDAMB436 cell line (breast)): 140 nM
- IC50 (cancer cell lines; Homo sapiens, MDA-MB-468, 72 h, MDAMB468 cell line (breast)): 770 nM
- IC50 (cancer cell lines; Homo sapiens, MG-63, 72 h, MG63 cell line (bone)): 680 nM
- IC50 (cancer cell lines; Homo sapiens, MHH-ES-1, 72 h, MHHES1 cell line (bone)): 1930 nM
- IC50 (cancer cell lines; Homo sapiens, MIA PaCa-2, 72 h, MIAPACA2 cell line (pancreas)): > 50000 nM
- IC50 (cancer cell lines; Homo sapiens, MINO, MINO cell line (hematological)): 10 nM
- IC50 (cancer cell lines; Homo sapiens, MV4-11, 72 h, MV4-11 cell line (hematological)): 140 nM
- IC50 (cancer cell lines; Homo sapiens, NCI-H23, 72 h, NCI-H23 cell line (lung)): 980 nM
- IC50 (cancer cell lines; Homo sapiens, NCI-H82, 72 h, NCIH82 cell line (lung)): 390 nM
- IC50 (cancer cell lines; Homo sapiens, NCI-H292, 72 h, NCIH292 cell line (lung)): > 50000 nM
- IC50 (cancer cell lines; Homo sapiens, NCI-H460, 72 h, NCIH460 cell line (lung)): 200 nM
- IC50 (cancer cell lines; Homo sapiens, OVCAR-3, 72 h, OVCAR3 cell line (ovary)): 3090 nM
- IC50 (cancer cell lines; Homo sapiens, OVCAR-4, 72 h, OVCAR4 cell line (ovary)): > 50000 nM
- IC50 (cancer cell lines; Homo sapiens, PANC-1, 72 h, PANC1 cell line (pancreas)): 1620 nM
- IC50 (cancer cell lines; Homo sapiens, PC-3, 72 h, PC3 cell line (prostate)): 2600 nM
- IC50 (cancer cell lines; Homo sapiens, PLC-PRF-5, 72 h, PLCPRF5 cell line (liver)): > 50000 nM
- IC50 (cancer cell lines; Homo sapiens, Panc1005, 72 h, PANC1005 cell line (pancreas)): > 50000 nM
- IC50 (cancer cell lines; Homo sapiens, RD, RD cell line (muscle)): 420 nM
- IC50 (cancer cell lines; Homo sapiens, Ramos, RAMOS cell line (hematological)): 160 nM
- IC50 (cancer cell lines; Homo sapiens, SAOS-2, 72 h, SAOS2 cell line (bone)): 90 nM
- IC50 (cancer cell lines; Homo sapiens, SF-268, 72 h, SF268 cell line (brain)): 220 nM
- IC50 (cancer cell lines; Homo sapiens, SF-295, 72 h, SF295 cell line (brain)): 3900 nM
- IC50 (cancer cell lines; Homo sapiens, SK-BR-3, 72 h, SKBR3 cell line (breast)): 30 nM
- IC50 (cancer cell lines; Homo sapiens, SK-HEP1, 72 h, SKHEP1 cell line (liver)): 770 nM
- IC50 (cancer cell lines; Homo sapiens, SK-LMS-1, 72 h, SKLMS1 cell line (uterus)): 1150 nM
- IC50 (cancer cell lines; Homo sapiens, SK-MEL-5, 72 h, SKMEL5 cell line, skin): > 50000 nM
- IC50 (cancer cell lines; Homo sapiens, SK-MEL-28, 72 h, SKMEL28 cell line (skin)): 2900 nM
- IC50 (cancer cell lines; Homo sapiens, SK-N-AS, SKNAS cell line (brain)): > 50000 nM
- IC50 (cancer cell lines; Homo sapiens, SK-N-SH, SKNSH cell line (brain)): > 50000 nM
- IC50 (cancer cell lines; Homo sapiens, SK-OV-3, 72 h, SKOV3 cell line (ovary)): 410 nM
- IC50 (cancer cell lines; Homo sapiens, SNB-75, 72 h, SNB75 cell line (brain)): 2820 nM
- IC50 (cancer cell lines; Homo sapiens, SU-DHL10, 72 h, SU-DHL-10 cell line (hematological)): 330 nM
- IC50 (cancer cell lines; Homo sapiens, SU-DHL-6, 72 h, SU-DHL-6 cell line (hematological)): 450 nM
- IC50 (cancer cell lines; Homo sapiens, SW-620, 72 h, SW620 cell line (colon)): 240 nM
- IC50 (cancer cell lines; Homo sapiens, T-24, 72 h, T24 cell line (bladder)): 400 nM
- IC50 (cancer cell lines; Homo sapiens, TE-671, 72 h, TE671 cell line (muscle)): 170 nM
- IC50 (cancer cell lines; Homo sapiens, THP-1, 72 h, THP-1 cell line (hematological)): 2140 nM
- IC50 (cancer cell lines; Homo sapiens, U-87 MG, U87MG cell line (brain)): 1870 nM
- IC50 (cancer cell lines; Homo sapiens, UMUC3, 72 h, UMUC3 cell line (bladder)): 1340 nM
- IC50 (cancer cell lines; Homo sapiens, UO-31, 72 h, UO31 cell line (kidney)): > 50000 nM
- IC50 (cancer cell lines; Homo sapiens, WSU-NHL, WSU-NHL cell line (hematological)): 380 nM
- IC50 (cancer cell lines; MT-3, 72 h, MT3 cell line (breast)): 60 nM
- IC50 (cancer cell lines; NCI-H358M, NCIH358M cell line (lung)): 70 nM
- IC50 (cancer cell lines; PBMC, PBMC (hematological)): 700 nM
- IC50 (cancer cell lines; RD-ES, RDES cell line (bone)): 6010 nM
Compound: C[C@]1(CO)O[C@@H](n2cc(F)c(N)nc2=O)C[C@@H]1O [Cpd. No. 4, 4-amino-5-fluoro-1-((2R,4S,5R)-4-hydroxy-5-(hydroxymethyl)-5-methyltetrahydrofuran-2-yl)pyrimidin-2(1H)-one]
- cytotoxicity against a panel of cell lines (waterfall plot) (cancer cell lines; panel of cancer and non-cancer cell lines, figure legends FIG. 1-3): selectively cytotoxic in cancer cell lines with high DDR activity
- metabolism (deamination) by human CDA (line graph) [1]: more stable than cytidine and gemcitabine
